Measurements reported in patent publication US7129258B2, “Substituted benzoxazoles as estrogenic agents” (priority 2001, dated 2006).
Values joined by “and” are separate entries in the source; they are usually repeats but may differ in a detail not shown here. Identical values can stand only once. Marks after values point to notes of the source that are not given here.

How the values were obtained:
morphine-addicted rats = experiment: Rat hot flush test procedure (tail skin temperature after naloxone); type: in vivo; conditions: 0.3 mg/kg
Source text: Rat Hot Flush Test Procedure
The effect of test compounds on hot flushes can be evaluated in a standard pharmacological test procedure which measures the ability of a test compound to blunt the increase in tail skin temperature which occurs as morphine-addicted rats are acutely withdrawn from the drug using naloxone [Merchenthaler, et al., Maturitas 30: 307–16 (1998)]. It can also be used to detect estrogen receptor antagonist activity by co-dosing test compound with the reference estrogen. The following data were obtained from representative compounds of the invention (Table (7))

[1] = system: Sexually immature Sprague-Dawley rats (uterine weight); experiment: Rat uterotrophic test procedure (Procedure 1); type: in vivo; conditions: 0.06 μg/rat s.c., days 19-21, alone
[2] = system: Sexually immature 129 SvE mice (uterine weight); experiment: Mouse uterotrophic test procedure (Procedure 2); type: in vivo; conditions: 50 mg/kg s.c., days 22-25
[3] = system: casein kinase II mRNA in mammary fat pad; experiment: Mammary end bud test procedure (rat mammotrophic assay); type: in vivo
Protocol: Evaluation in the Mammary End Bud Test Procedure
Estrogens are required for full ductal elongation and branching of the mammary ducts, and the subsequent development of lobulo-alveolar end buds under the influence of progesterone. In this test procedure, the mammotrophic activity of selected compounds of the invention was evaluated according to the following standard pharmacological test procedure. Twenty-eight day old Sprague-Dawley rats (Taconic Farms) were ovariectomized and rested for nine days. Animals were housed under a 12-hour light/dark cycle, fed a casein-based Purina Laboratory Rodent Diet 5K96 (Purina, Richmond, Ind.) and allowed free access to water. […] The following results were obtained for representative compounds of the invention (Table (8)).

[4] = system: ovariectomized Sprague-Dawley rats (proximal tibia); experiment: Bone mineral density in the ovariectomized rat; type: in vivo; conditions: 5 weeks
HLA-B27 rats = experiment: HLA rat test procedure for inflammatory bowel disease (stool score 3 = diarrhea, 2 = soft stool, 1 = normal stool; colon histology); type: in vivo
[5] = system: Lewis rats, Freund's Adjuvant-Complete induced arthritis; experiment: Lewis rat adjuvant-induced arthritis, treatment test procedure; type: in vivo; conditions: Treatment protocol, s.c. daily, begun Day 8 after adjuvant injection
[6] = system: Lewis rats, Freund's Adjuvant-Complete induced arthritis; experiment: Lewis rat adjuvant-induced arthritis, inhibition test procedure; type: in vivo; conditions: Inhibition protocol, s.c. daily from Day 1
[7] = system: human endometrial tissue implanted into ovariectomized athymic nude mice; experiment: Endometriosis test procedure; type: in vivo, mouse; conditions: 10 mg/kg oral daily
Protocol: Evaluation in an Endometriosis Standard Pharmacologic Test Procedure This procedure is slightly modified from a published method [Bruner-Tran. et al., Journal of Clinical Investigation 99: 2851–2857. (1997)]. […] Lesions are allowed to establish for at least 10 days, then oral daily dosing begins and continues for at least 15 days. It should be noted that all mice have visible lesions at the start of dosing. At necropsy the number of mice with lesions is determined as well as the lesions per mouse.

[8] = Study C colon histology, oral 7 weeks, 10 mg/kg days 1–18 then 20 mg/kg, mean ± SD
[9] = Study C colon histology, oral 7 weeks, 10 mg/kg days 1–24 then 20 mg/kg, mean ± SD
[10] = Study B colon histology, oral 4 weeks, 10 mg/kg days 1–14 then 20 mg/kg, mean ± SD

## C#C[C@]1(O)CC[C@H]2[C@@H]3CCc4cc(O)ccc4[C@H]3CC[C@@]21C [17α-ethinyl, 17β-estradiol, 17α-ethinyl-17β-estradiol]
morphine-addicted rats
  Temperature change 15 minutes after naloxone injection (mean ± SEM): 2.12 ± 1.14
[1]
  mean uterine weight ± SEM: 104.7 ± 5.4 mg and 85.5 ± 3.1 mg

## C[C@]12CC[C@@H]3c4ccc(O)cc4CC[C@H]3[C@@H]1CC[C@@H]2O [17β-estradiol]
[2]
  mean uterine weight ± SEM: 41.9 ± 2.9 mg and 40.0 ± 2.0 mg and 35.6 ± 4.4 mg and 40.5 ± 5.84 mg and 42.9 ± 4.8 mg and 41.7 ± 3.6 mg
[3]; 0.1 mg/kg s.c. + Progesterone (30 mg/kg)
  Casein kinase II mRNA/18 S rRNA (mean ± SEM): 39.0 ± 5.36
[4]; 2 μg/rat s.c.
  Total Bone Mineral Density (mean ± SEM): 639.49 ± 14.47 mg/mL
  Trabecular Bone Mineral Density (mean ± SEM): 453.28 ± 24.93 mg/mL

## Oc1cc(Br)c2oc(-c3ccc(O)c(F)c3)nc2c1 [Example 21, 7-Bromo-2-(3-fluoro-4-hydroxyphenyl)-1,3-benzoxazol-5-ol]
HLA-B27 rats; [8]
  Fibrosis (0–2): 0.56 ± 0.32
  Lesion depth (0–2): 0.75 ± 0.50
HLA-B27 rats; Study C colon histology, oral 7 weeks, 10 mg/kg then 20 mg/kg, mean ± SD
  Ulceration (0–2): 0.81 ± 0.47
HLA-B27 rats; Study C, oral, 10 mg/kg then 20 mg/kg
  scores on all disease parameters vs vehicle-treated rats (in words): not statistically significant, were lower
[4]; 10 mg/kg s.c.
  Total Bone Mineral Density (mean ± SEM): 501.40 ± 11.97 mg/mL
  Trabecular Bone Mineral Density (mean ± SEM): 312.34 ± 19.73 mg/mL

## C=Cc1cc(O)cc2nc(-c3ccc(O)c(F)c3)oc12 [Example 24, 2-(3-Fluoro-4-hydroxyphenyl)-7-vinyl-1,3-benzoxazol-5-ol]
[3]; 20 mg/kg s.c. + Progesterone (30 mg/kg)
  Casein kinase II mRNA/18 S rRNA (mean ± SEM): 3.98 ± 0.79
HLA-B27 rats; Study A, 50 mg/kg s.c. once per day
  Stool quality (in words): improved
HLA-B27 rats; [9]
  Fibrosis (0–2): 0*
  Inflammation (0–3): 0.69 ± 0.24
  Lesion depth (0–2): 0*
  Total score: 0.69 ± 0.24
  Ulceration (0–2): 0*
HLA-B27 rats; Study C, oral, 10 mg/kg days 1–24 then 20 mg/kg
  total disease score, intestinal histology (in words): significantly reduced
HLA-B27 rats; composite of two subcutaneous dosing studies, including Study A
  measurements of tissue injury, colon histology (in words): effective in reducing several measurements of tissue injury
[5]; Day 4
  Joint inflammation score (maximal score per day 12): 9.50
[5]; Day 5
  Joint inflammation score (maximal score per day 12): 8.00
[5]; Day 6
  Joint inflammation score (maximal score per day 12): 7.00
[5]; Day 9
  Joint inflammation score (maximal score per day 12): 3.50
[5]; Day 17
  Joint inflammation score (maximal score per day 12): 2.00
[6]; Day 1
  Joint inflammation score (maximal score per day 12): 0.00
[6]; Day 2
  Joint inflammation score (maximal score per day 12): 1.00
[6]; Day 3
  Joint inflammation score (maximal score per day 12): 4.50
[6]; Day 15
  Joint inflammation score (maximal score per day 12): 3.00
[6]; Day 17
  Joint inflammation score (maximal score per day 12): 1.50
[7]; evaluated three times
  lesions at necropsy compared with mice dosed with vehicle: fewer lesions
[7]; Study 1
  lesions found per animal (mice with lesions): one
  mice with lesion regression: four of six
[7]; Study 1, all mice had lesions at start of dosing
  mice with any lesions at necropsy: two of six

## C=Cc1cc(O)cc2nc(-c3ccc(O)cc3F)oc12 [Example 25, 2-(2-Fluoro-4-hydroxyphenyl)-7-vinyl-1,3-benzoxazol-5-ol]
HLA-B27 rats; [10]
  Fibrosis (0–2): 0.31 ± .13
  Inflammation (0–3): 1.50 ± 0.35
  Lesion depth (0–2): 0.44 ± 0.24
  Ulceration (0–2): 0.44 ± 0.24

## C=Cc1cc(O)cc2nc(-c3ccc(O)cc3)oc12 [Example 27, 2-(4-Hydroxyphenyl)-7-vinyl-1,3-benzoxazol-5-ol]
[5]; Day 8
  Joint inflammation score (maximal score per day 12): 5.00
[5]; Day 15
  Joint inflammation score (maximal score per day 12): 2.00
[5]; Day 16
  Joint inflammation score (maximal score per day 12): 2.00
[5]; Day 17
  Joint inflammation score (maximal score per day 12): 1.50

## C=C(Br)c1cc(O)cc2nc(-c3ccc(O)cc3F)oc12 [Example 32, 7-(1-Bromovinyl)-2-(2-fluoro-4-hydroxyphenyl)-1,3-benzoxazol-5-ol]
[5]; Day 1
  Joint inflammation score (maximal score per day 12): 11.33
[5]; Day 2
  Joint inflammation score (maximal score per day 12): 10.83
[5]; Day 3
  Joint inflammation score (maximal score per day 12): 9.33
[5]; Day 4
  Joint inflammation score (maximal score per day 12): 8.00
[5]; Day 5
  Joint inflammation score (maximal score per day 12): 5.83
[5]; Day 6
  Joint inflammation score (maximal score per day 12): 3.33
[5]; Day 7
  Joint inflammation score (maximal score per day 12): 3.00
[5]; Day 8
  Joint inflammation score (maximal score per day 12): 2.50
[5]; Day 9
  Joint inflammation score (maximal score per day 12): 2.50
[5]; Day 10
  Joint inflammation score (maximal score per day 12): 2.50
[5]; Day 11
  Joint inflammation score (maximal score per day 12): 2.50
[5]; Day 12
  Joint inflammation score (maximal score per day 12): 2.50
[5]; Day 13
  Joint inflammation score (maximal score per day 12): 2.50
[5]; Day 14
  Joint inflammation score (maximal score per day 12): 2.50
[5]; Day 15
  Joint inflammation score (maximal score per day 12): 2.00
[5]; Day 16
  Joint inflammation score (maximal score per day 12): 1.33
[5]; Day 17
  Joint inflammation score (maximal score per day 12): 1.00
